Measured values published in the supplement of paper PMC10307832.

Compound: C[C@H]([C@@H](C(=O)N)NC(=O)[C@@H]1CSSC[C@@H](C(=O)N[C@H](C(=O)N[C@@H](C(=O)N[C@H](C(=O)N1)CCCCN)CC2=CNC3=CC=CC=C32)CC4=CC=C(C=C4)O)NC(=O)[C@@H](CC5=CC=CC=C5)N)O [CAP-232] + CC(=O)c1c(C)c2cnc(Nc3ccc(N4CCNCC4)cn3)nc2n(C2CCCC2)c1=O [Palbociclib] (partner 0.5 µM)
Test: relative viability (nuclei count vs DMSO), 5 days (fraction); higher = more cells survive
Outline: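 Relative viability divides the nuclei count in treated wells by that in vehicle wells. Lung cancer cell lines were seeded in 1536-well plates, dosed by pin tool the next day, and fixed and stained after 5 days in one step with final 0.05% Triton X-100, 1% formaldehyde and 1 ug/ml Hoechst. Dosing was a single drug or a fixed anchor-drug dose plus five library-drug doses (not always all listed) in √10 steps, and values are medians of duplicate plates imaged at 4×.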

Row | Cell Line | relative viability (first compound 0.4 µM) | relative viability (first compound 1.265 µM) | relative viability (first compound 4 µM) | relative viability (first compound 12.65 µM)
1 | 201T | 0.357 | 0.354 | 0.317 | 0.376
2 | A-427 | 0.528 | 0.554 | 0.508 | 0.467
3 | ABC-1 | 0.641 |  | 0.691 | 0.513
4 | BEN | 0.516 | 0.46 | 0.456 | 0.448
5 | CAL-12T | 0.422 | 0.552 | 0.376 | 0.179
6 | COR-L23 | 0.338 | 0.29 | 0.304 | 0.255
7 | COR-L 105 | 0.395 | 0.401 | 0.384 | 0.387
8 | ChaGo-K-1 | 0.964 | 0.932 | 1.01 | 0.932
9 | EKVX | 0.387 | 0.339 | 0.262 | 0.262
10 | EMC-BAC-2 | 0.507 | 0.512 | 0.491 | 0.427
11 | EPLC-272H | 0.342 | 0.292 | 0.297 | 0.296
12 | H3255 | 0.314 | 0.32 | 0.329 | 0.282
13 | HARA | 0.236 | 0.31 | 0.246 | 0.265
14 | HCC-15 | 0.754 | 0.763 | 0.567 | 0.567
15 | HCC-44 | 1 | 1.05 | 0.92 | 0.937
16 | HCC-78 | 0.481 | 0.496 | 0.552 | 0.49
17 | HCC-366 | 0.454 | 0.362 | 0.41 | 0.331
18 | HCC-827 | 0.423 | 0.498 | 0.461 | 0.514
19 | HOP-62 | 0.491 | 0.42 | 0.436 | 0.386
20 | LC-2-ad | 0.478 | 0.517 | 0.473 | 0.513
21 | LCLC-97TM1 | 0.243 | 0.22 | 0.187 | 0.248
22 | LCLC-103H | 0.469 | 0.429 | 0.487 | 0.485
23 | LK-2 | 0.595 | 0.802 | 0.576 | 0.783
24 | LOU-NH91 | 0.525 | 0.482 | 0.522 | 0.39

Row | Cell Line | relative viability (first compound 0.4 µM) | relative viability (first compound 1.265 µM) | relative viability (first compound 4 µM) | relative viability (first compound 12.65 µM)
25 | LU99A | 0.392 | 0.375 | 0.407 | 0.505
26 | LXF-289 | 0.611 | 0.625 | 0.58 | 0.62
27 | NCI-H23 | 0.437 | 0.478 | 0.523 | 0.567
28 | NCI-H322M | 0.494 | 0.427 | 0.446 | 0.508
29 | NCI-H358 | 0.22 | 0.125 | 0.14 | 0.153
30 | NCI-H441 | 0.209 | 0.19 | 0.257 | 0.214
31 | NCI-H460 | 0.246 | 0.148 | 0.155 | 0.0823
32 | NCI-H520 | 0.241 | 0.224 | 0.249 | 0.234
33 | NCI-H522 | 0.982 | 0.929 | 1.05 | 0.848
34 | NCI-H647 | 0.34 | 0.358 | 0.404 | 0.284
35 | NCI-H650 | 0.358 | 0.306 | 0.271 | 0.285
36 | NCI-H661 | 0.415 | 0.403 | 0.433 | 0.35
37 | NCI-H727 | 0.528 | 0.65 | 0.558 | 0.701
38 | NCI-H838 | 0.228 | 0.205 | 0.237 | 0.212
39 | NCI-H1355 | 0.42 | 0.413 | 0.432 | 0.343
40 | NCI-H1395 | 0.679 |  | 0.665 | 0.578
41 | NCI-H1437 | 0.293 | 0.312 | 0.315 | 0.303
42 | NCI-H1650 | 0.306 | 0.304 | 0.38 | 0.243
43 | NCI-H1651 | 0.561 | 0.525 | 0.511 | 0.522
44 | NCI-H1666 | 0.715 | 0.636 | 0.655 | 0.67
45 | NCI-H1734 | 0.34 | 0.336 | 0.368 | 0.233
46 | NCI-H1755 | 0.474 | 0.406 | 0.48 | 0.413
47 | NCI-H1792 | 0.893 | 0.694 | 0.669 | 0.545
48 | NCI-H1793 | 0.401 | 0.313 | 0.303 | 0.324

Row | Cell Line | relative viability (first compound 0.4 µM) | relative viability (first compound 1.265 µM) | relative viability (first compound 4 µM) | relative viability (first compound 12.65 µM)
49 | NCI-H1915 | 0.5 | 0.538 | 0.524 | 0.511
50 | NCI-H1944 | 0.393 | 0.31 | 0.326 | 0.325
51 | NCI-H1975 | 0.664 | 0.486 | 0.74 | 0.324
52 | NCI-H1993 | 0.701 | 0.586 | 0.62 | 0.602
53 | NCI-H2009 | 0.181 | 0.244 | 0.175 | 0.153
54 | NCI-H2023 | 0.377 | 0.353 | 0.346 | 0.157
55 | NCI-H2085 | 0.465 | 0.495 | 0.447 | 0.5
56 | NCI-H2087 | 0.214 | 0.225 | 0.218 | 0.226
57 | NCI-H2126 | 0.345 | 0.315 | 0.341 | 0.359
58 | NCI-H2170 | 0.358 | 0.38 | 0.429 | 0.424
59 | NCI-H2228 | 1.06 | 0.803 | 0.971 | 0.632
60 | NCI-H2342 | 0.45 | 0.509 | 0.497 | 0.487
61 | NCI-H2347 | 0.453 | 0.462 | 0.412 | 0.423
62 | NCI-H2405 | 0.553 | 0.563 | 0.536 | 0.369
63 | NCI-H3122 | 0.178 | 0.181 | 0.187 | 0.214
64 | PC-3 [JPC-3] | 0.583 | 0.542 | 0.545 | 0.555
65 | PC-14 | 0.675 | 0.507 | 0.538 | 0.412
66 | RERF-LC-KJ | 1.43 | 1.12 | 0.908 | 0.747
67 | SK-LU-1 | 0.375 | 0.398 | 0.405 | 0.364
68 | SK-MES-1 | 0.324 | 0.292 | 0.278 | 0.258
69 | SW 900 | 0.528 | 0.481 | 0.512 | 0.465
70 | SW 1573 | 0.313 | 0.392 | 0.406 | 0.201
71 | UMC-11 | 0.346 | 0.349 | 0.311 | 0.341
